Source: paper PMC7466040, “Sevanol and Its Analogues: Chemical Synthesis, Biological Effects and Molecular Docking” (Pharmaceuticals, 2020)

Tests used:
rat ASIC1a = target: T1, rat ASIC1a (Rattus norvegicus, UniProt P55926); assay: Two-electrode voltage clamp on X. laevis oocytes expressing rat ASIC1a; type: cell-based; settings: for IC50: X. laevis oocytes, pH drop 7.4 to 5.5, holding potential −50 mV, mean ± SEM of 5–6, read-out: IC50, inhibition of ASIC1a current; for maximal current block, ASIC1a: effect reversible
T1 construct: expressed in transfected cells; host or cells: Xenopus laevis oocytes (cRNA injection)
T1 sequence (P55926 1-526): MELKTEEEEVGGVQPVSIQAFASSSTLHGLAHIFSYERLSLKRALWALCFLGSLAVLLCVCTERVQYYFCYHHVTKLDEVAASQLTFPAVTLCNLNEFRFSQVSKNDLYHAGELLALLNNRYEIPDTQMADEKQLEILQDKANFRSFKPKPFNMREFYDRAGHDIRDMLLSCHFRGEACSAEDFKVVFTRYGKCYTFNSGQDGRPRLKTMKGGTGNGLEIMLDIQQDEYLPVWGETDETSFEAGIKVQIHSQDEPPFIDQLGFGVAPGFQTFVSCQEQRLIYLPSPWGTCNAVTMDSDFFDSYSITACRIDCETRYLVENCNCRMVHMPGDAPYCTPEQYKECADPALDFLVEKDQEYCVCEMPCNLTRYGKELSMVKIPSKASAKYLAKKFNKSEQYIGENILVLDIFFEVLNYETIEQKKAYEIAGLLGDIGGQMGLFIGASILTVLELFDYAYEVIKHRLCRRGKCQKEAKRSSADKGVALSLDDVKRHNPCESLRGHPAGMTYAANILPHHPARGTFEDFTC
Description: (§1) Testing the activity of synthetic sevanol (s706) (as a mixture of 75% of sevanol and 25% of isosevanol) and its analogues (s590, EA, and s788) was carried out by the standard two-electrode voltage clamp method on X. laevis oocytes expressing rat ASIC1a and ASIC3 channels. The activation of the channels was performed using a rapid change of the solution from conditioning pH 7.4 to a solution with pH 5.5. Sevanol and its two analogues, s590 and EA, inhibited ASIC1a and ASIC3 channels.
(§2) Oocytes were harvested from female frogs anaesthetized with tricaine methane sulfonate (MS222) (0.17% solution), and the surgery was performed in an ice bath to avoid heavy bleeding. Defolliculated stage IV and V cells were injected with 2.5 and 10 ng cRNA, synthesized from PCi plasmids containing the rat ASIC1a and rat ASIC3 isoforms, respectively, using the Nanoliter 2000 microinjection system (World Precision Instruments, USA). The injected oocytes were kept for 2–3 days at 17 to 19 °C, and then for up to 5 days at 15 °C in a ND96 medium containing (in mM) 96 NaCl, 2 KCl, 1.8 CaCl2, 1 MgCl2, and 5 HEPES titrated to pH 7.4 with NaOH supplemented with gentamycin (50 μg/mL). Two-electrode voltage clamp recordings were performed at a holding potential of −50 mV using a GeneClamp 500 amplifier (Axon Instruments), and the data were filtered at 20 Hz and digitized at 100 Hz by an AD converter L780 (LCard, Russia). Microelectrodes were filled with 3 M KCl. The conditioning bath solution was ND96; the pH was adjusted to 7.4. The activating test solution was constructed based on the ND-96 buffer, in which 5 mM HEPES was replaced with 10 mM MES and pH was adjusted to 5.5. A computer-controlled valve system was used to achieve a rapid solution exchange in the recording chamber. A four parameter logistic equation was used for the curve-fitting analysis: F(x) = ((a1 − a2)/(1 + (x/x0)n)) + a2, where x is the concentration of the compound; F(x) is the response value at a given concentration of the compound; a1 is the control response value (fixed at 100%); x0 is the IC50 value; n is the Hill coefficient (slope factor); and a2 is the response value at the maximal inhibition (% of control).
(§3) Figure 2 The inhibitory activity of sevanol (s706) and its analogues. Currents were elicited by a drop from pH 7.4 to 5.5; the holding potential was −50 mV; (A,C) are dose–response curves for s706, s590 and EA inhibitory effects on ASIC1a and ASIC3 channels, respectively; (B,D) are reciprocal IC50 values for s706, s590 and EA inhibitory effects on ASIC1a and ASIC3 channels, respectively. The data were fitted by the logistic equation. Each point is the mean ± SEM of 5–6 measurements. * p < 0.05, ** p < 0.005.

rat ASIC3 = target: T2, rat ASIC3 (Rattus norvegicus, UniProt O35240); assay: Two-electrode voltage clamp on X. laevis oocytes expressing rat ASIC3; type: cell-based; settings: for IC50: X. laevis oocytes, pH drop 7.4 to 5.5, holding potential −50 mV, mean ± SEM of 5–6, read-out: IC50, inhibition of ASIC3 current; for maximal current block, ASIC3: effect reversible
T2 construct: expressed in transfected cells; host or cells: Xenopus laevis oocytes (cRNA injection)
T2 sequence (O35240 1-533): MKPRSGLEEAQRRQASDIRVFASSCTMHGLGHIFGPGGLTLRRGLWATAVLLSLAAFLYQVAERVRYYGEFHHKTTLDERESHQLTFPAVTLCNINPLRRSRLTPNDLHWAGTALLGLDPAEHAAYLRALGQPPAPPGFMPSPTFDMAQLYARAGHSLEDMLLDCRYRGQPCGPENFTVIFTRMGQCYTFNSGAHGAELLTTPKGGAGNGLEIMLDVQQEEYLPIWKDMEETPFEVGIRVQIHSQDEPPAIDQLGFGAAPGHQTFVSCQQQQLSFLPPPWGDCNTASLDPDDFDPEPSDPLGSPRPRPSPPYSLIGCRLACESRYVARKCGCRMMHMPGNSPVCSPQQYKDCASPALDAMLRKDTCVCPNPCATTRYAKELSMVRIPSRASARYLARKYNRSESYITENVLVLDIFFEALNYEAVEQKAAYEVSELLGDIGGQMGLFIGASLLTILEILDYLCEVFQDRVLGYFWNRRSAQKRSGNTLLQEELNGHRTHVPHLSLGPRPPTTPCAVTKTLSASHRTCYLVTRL
Description: as §1, §2, §3

[1] = test system: ASIC3-containing channels; parameters: method as in PMID 11588175; settings: read-out: IC50, inhibition of ASIC3-containing channels; cited from earlier work
ASIC1a = test system: ASIC1a; parameters: method as in PMID 25196733; settings: cited from earlier work
[2] = test system: all of the functional isoforms of ASICs; parameters: method as in PMID 9261094; settings: read-out: IC50, inhibition of ASICs; cited from earlier work
ASIC currents = test system: ASIC currents; parameters: method as in PMID 16061325; settings: read-out: IC50, non-selective inhibition of ASIC currents; cited from earlier work
[3] = test system: ASIC1a-containing channels; parameters: method as in PMID 11588175; settings: read-out: IC50, inhibition of ASIC1a-containing channels; cited from earlier work

## COC(=O)CC(C(=O)OC)C(OC(=O)C1=Cc2cc(O)c(O)cc2C(c2ccc(O)c(O)c2)C1C(=O)OC(C(=O)OC)C(CC(=O)OC)C(=O)OC)C(=O)OC (stereo not shown) [s788, Hexamethyl1,1′-((1-(3,4-dihydroxyphenyl)-6,7-dihydroxy-1,2-dihydronaphthalene-2,3-dicarbonyl)bis(oxy))bis(propane-1,2,3-tricarboxylate)]
Rat ASIC1a; pH 7.4 to 5.5
  activity on ASIC1a channel: did not demonstrate any activity
Rat ASIC3; pH 7.4 to 5.5
  activity on ASIC3 channel: did not demonstrate any activity

## O=C(O)Cc1ccccc1Nc1c(Cl)cccc1Cl [diclofenac]
[1]
  IC50: 92 µM

## CC12CC3CC(C)(C1)CC(N)(C3)C2 [memantine]
ASIC1a
  inhibition of ASIC1a: inhibit ASIC1a in submillimolar concentrations

## O=C(O)CC(OC(=O)C1=Cc2cc(O)c(O)cc2C(c2ccc(O)c(O)c2)C1C(=O)OC(CC(=O)O)C(=O)O)C(=O)O (stereo not shown) [s590, 2,2′-((1-(3,4-dihydroxyphenyl)-6,7-dihydroxy-1,2-dihydronaphthalene-2,3-dicarbonyl)bis(oxy))disuccinic acid]
Rat ASIC1a
  IC50: 297 ± 41 µM
Rat ASIC1a; pH 7.4 to 5.5
  maximal current block, ASIC1a: 100%
Rat ASIC3
  IC50: 241 ± 25 µM
Rat ASIC3; pH 7.4 to 5.5
  maximal current block, ASIC3: 100%

## N=C(N)NC(=O)c1nc(Cl)c(N)nc1N [Amiloride]
[2]
  IC50: 10 to 60 µM

## CC(C)C1c2cc(C3CC3c3ccc4cc(C(=N)N)ccc4c3)ccc2CCN1C (stereo not shown) [A-317567]
ASIC currents
  IC50: 2 to 30 µM

## Nc1c2ccccc2nc2ccccc12 [9-aminoacridine]
ASIC1a
  inhibition of ASIC1a: inhibit ASIC1a in submillimolar concentrations

## O=C(O)C1=Cc2cc(O)c(O)cc2[C@@H](c2ccc(O)c(O)c2)[C@@H]1C(=O)O [EA, epiphyllic acid]
Rat ASIC1a
  IC50: 415 ± 66 µM
Rat ASIC1a; pH 7.4 to 5.5
  maximal current block, ASIC1a: 100%
Rat ASIC3
  IC50: 424 ± 33 µM
Rat ASIC3; pH 7.4 to 5.5
  maximal current block, ASIC3: 100%
Rat ASIC3; ratio of ASIC1a and ASIC3 inhibition
  effectiveness in inhibiting ASIC3 relative to ASIC1a: acted equally on the ASIC1a and ASIC3 channels

## CC(=O)Oc1ccccc1C(=O)O [aspirin]
[1]
  IC50: 260 µM

## CC(C(=O)O)c1ccc(-c2ccccc2)c(F)c1 (stereo not shown) [flurbiprofen]
[3]
  IC50: 350 µM

## CC(C)Cc1ccc(C(C)C(=O)O)cc1 (stereo not shown) [ibuprofen]
[3]
  IC50: 350 µM
